In patent US9764048B2, “Targeted molecular imaging probe and method for in vivo molecular imaging” (priority 2012, dated 2017):
“Also recorded” adds a separate entry of the source. *1 amine or outer side, *2 acyl side, *3 side chain or, on linkers, in order; H or OH if unused. Where a SMILES comes first, the peptide text is derived from it. Where no end group is shown, it is not given here. [ ]: non-standard residue; d: D form. ξ: configuration not given here. X1 = O=C(C1C[C@H](O)CN1[*:1])[*:2]; Hyp = O=C(O)[C@@H]1C[C@@H](O)CN1; ξY = NC(Cc1ccc(O)cc1)C(=O)O; ξP = O=C(O)C1CCCN1; ξA = CC(N)C(=O)O

Columns and labels:
HeLa-Cx43 cells [1] = assay: ^64Cu-NODA-Cx43SP1 cells binding and blocking experiment; format: cell-based
Excerpt: (§1) 1) Establishment of a Cx43 highly expressing cell line: Cervical cancer HeLa cells were transfected by Cx43 gene, and cervical cancer tumor cell lines HeLa-Cx43 overexpressing Cx43 was successfully prepared. Non-transgenic HeLa cells (without C43 expression) were used as control.
(§2) HeLa-Cx43 cells and control group HeLa-Control cells were applied onto a 12-well plate in an amount of 0.5×10^6/well one day prior to experiment, and were classified into four groups: Group A: HeLa-Cx43 cells group, Group B: HeLa-Control cells group, Group C: HeLa-Cx43 cells blocking group, Group D: HeLa-Control cells blocking group. Each group comprises 3 wells, and the experiment was repeated for 3 times. Into each well was added ^64Cu-NODA-Cx43SP1 with a concentration of 3.2 μCi/well and an amount of 1 ml. Unlabeled NODA-Cx43SP1 was added into the blocking groups with a concentration of 50 μg/well (10 times of ^64Cu-NODA-Cx43SP1).

HeLa-Control cells [2] = assay: ^64Cu-NODA-Cx43SP1 cells binding and blocking experiment, control cells; format: cell-based; details: 3.2 μCi/well, HeLa without Cx43 transfection
Excerpt: as §1, §2

[3] = cited from earlier work
HeLa-Cx43 cells [4] = assay: Cy5.5-Cx43SP1 cells binding and blocking experiment; format: cell-based; details: for binding / uptake of probe by HeLa-Cx43 cells: Cy5.5-Cx43SP1 500 nmol/L, fluorescence microscopy
Excerpt: as §1
(§3) 2) Cy5.5-Cx43SP1 cells binding and blocking experiment: HeLa-Cx43 cells and the control group HeLa-Control cells were applied onto a 12-well plate in an amount of 0.5×10^6/well one day prior to experiment, and were classified into four groups: Group A: HeLa-Cx43 cells group, Group B: HeLa-Control cells group, Group C: HeLa-Cx43 cells blocking group, Group D: HeLa-Control cells blocking group. Each group comprises 3 wells and the experiment was repeated for 3 times. Into each well was added Cy5.5-Cx43SP1 with a concentration of 500 nmol/L and an amount of 1 ml. Unlabeled Cx43SP1 was added into blocking groups with a concentration of 5 μmol/L.

HeLa-Control cells [5] = assay: Cy5.5-Cx43SP1 cells binding and blocking experiment, control cells; format: cell-based; details: for binding / uptake of probe by control HeLa cells: Cy5.5-Cx43SP1 500 nmol/L, HeLa without Cx43 transfection
Excerpt: as §1, §3

myocardial gap junctions = assay: Fluorescence microscopy of frozen tissue sections after tail vein injection of the probe; format: in vivo; details: 1 h after tail vein injection
Excerpt: Meanwhile, frozen sections of tissue were further prepared and imaged under a fluorescence microscope. By using muscle as a control (FIGS. 3-a, 3-b, and 3-c), the distribution profile of the probe Cy5.5-Cx43SP in heart was observed under a fluorescence microscope.

[6] = Biological distribution of Cy5.5-Cx43SP in normal mice, ex vivo near-infrared fluorescent imaging of main organs; details: mouse
Experimental: 1 hour after injection of Cy5.5-Cx43SP, the mice were sacrificed, and their organs were taken out to perform ex vivo near-infrared fluorescent imaging of main organs. […] Especially, the relatively high uptake by heart is highly consistent with the fact that normal heart express relatively high Cx43 (FIG. 6).

[7] = system: HeLa-Cx43 tumor overexpressing Cx43; assay: Optical tumor imaging of nude mice bearing tumor; format: in vivo, nude mouse; details: near-infrared fluorescent imaging, 1 h after tail vein injection
Experimental: (§4) HeLa-Cx43 cells overexpressing Cx43 were used to establish a subcutaneous xenograft model in nude mouse (FIG. 9, left), and the conventional subcutaneous xenograft model of HeLa cells without transfection of Cx43 were used as control group (FIG. 9, right). In vivo Cy5.5-Cx43SP1 near-infrared fluorescent imaging of tumor was carried out.

HeLa tumor = assay: Optical tumor imaging of nude mice bearing tumor, control xenograft; format: in vivo, nude mouse; details: near-infrared fluorescent imaging, 1 h after tail vein injection
Experimental: as §4

## ^64Cu-NODA-Cx43SP1: NODA-modified Cx43SP1 labeled with ^64Cu, PET probe (GAPG[Hyp]PY; also: NODA chelator carrying 64Cu, site not given here)
HeLa-Cx43 cells [1]; 3.2 μCi/well
  binding of probe to HeLa-Cx43 cells: significant specific binding
HeLa-Cx43 cells [1]; unlabeled NODA-Cx43SP1 50 μg/well
  binding to HeLa-Cx43 in the blocking experiment: substantially reduced
HeLa-Control cells [2]
  binding of probe to control HeLa cells: no binding

## CC(NC(=O)CN)C(=O)NCC(=O)N1C[C@@H](O)CC1C(=O)N1CCCC1C(=O)NC(Cc1ccc(O)cc1)C(N)=O (stereo partly drawn) [AAP10, Gly-Ala-Pro-Gly-4 Hyp-Pro-Tyr] (H-G[ξA]G[X1][ξP][ξY]-NH2)
[3]
  stability in plasma: not stable in plasma

## Cy5.5-Cx43SP1: Cx43SP1 labeled with near-infrared fluorescent dye Cy5.5 via Cy5.5-NHS (GAPG[Hyp]PY; also: Cy5.5 coupled via Cy5.5-NHS, site not given here)
HeLa-Cx43 cells [4]
  binding / uptake of probe by HeLa-Cx43 cells: significant specific binding
HeLa-Cx43 cells [4]; listed as Cy5.5-Cx43SP
  binding / uptake of probe by HeLa-Cx43 cells: uptake a large amount
HeLa-Cx43 cells [4]; blocking with excess unlabeled Cx43SP 5 μmol/L
  binding / uptake by HeLa-Cx43 cells after blocking: substantially reduced; also recorded: decreases significantly
HeLa-Control cells [5]
  binding / uptake of probe by control HeLa cells: no binding
HeLa-Control cells [5]; listed as Cy5.5-Cx43SP
  binding / uptake of probe by control HeLa cells: not uptaken
HeLa-Control cells [5]; blocking with excess unlabeled Cx43SP
  uptake by control HeLa cells after blocking: still do not uptake
Myocardial gap junctions; frozen section of muscle
  gathering of probe in muscular tissue (control): not gathered in the muscular tissue
Myocardial gap junctions; frozen section of myocardium
  gathering of probe in myocardial tissue: gathered in the myocardial tissue in large amount
  location of probe within myocardium: mainly distributed at the location of gap junctions between myocardial cells
[6]; 1 h after injection
  excretion route: mainly excreted through liver and intestinal tract, and partly through kidney and urinary system; also recorded: mostly excreted via liver and intestinal tract
[6]; 1 h after tail vein injection, ex vivo organs
  organ distribution of probe: mainly distributed in heart, liver, gastrointestinal tract; also recorded: significantly gathered in the heart, stomach, liver, gall bladder and intestinal tract
[7]
  gathering of probe at HeLa-Cx43 tumor: gathered in the location of HeLa-Cx43 tumor overexpressing Cx43 in high concentration; also recorded: gathered at tumor site of HeLa-Cx43 overexpressing Cx43 in large amount
HeLa tumor
  gathering of probe at control HeLa tumor: no obvious gather; also recorded: not concentrated at the HeLa tumor site
